Experimental findings from patent US20230381223A1, “ORAL PYROPHOSPHATE FOR USE IN REDUCING CALCIFICATION” (PYROGENYX INC., priority 2020, published 2023) are described below.

For one series, the system named is Abcc6−/− mice. Conditions: female Abcc6−/− mice, oral, 10 mM in drinking water. Here is the method: Briefly, mice were kept under routine laboratory conditions with a 12-hour light-dark cycle and ad libitum access to water and chow. Anesthesia was carried out by intraperitoneal injection of the mixture of Zoletil (30 mg/kg, Virbac, France), Xylazine (12.5 mg/kg, Produlab Pharma, The Netherlands) and Butorphanol (3 mg/kg, Richterpharma, Austria) during all procedures.
In this experiment calcification was induced in the myocardium and five days after we determined the Ca^2+-content of the heart.

The conditions of series [1]: healthy volunteers, oral, gelatin capsules, 39 mg pyrophosphate/kg. The procedure:
To avoid the unpleasant taste we used capsulated PPi salts instead of water-based solution as the form of delivery. We tested two different capsules: gelatin and cellulose. Subsequently, we determined how PPi is absorbed in individuals affected by PXE compared to its absorption in non-PXE volunteers.
Human studies were conducted in accordance with the Declaration of Helsinki. The oral uptake studies involving healthy human volunteers (female and male) were conducted and all patient samples were handled in an anonymized form. The oral uptake study involving PXE patients involved mutation analysis confirming the diagnosis in PXE patients. The diagnosis of PXE was based on characteristic skin findings, supported by characteristic histopathology, and ocular and vascular involvement.
Gelatin capsules were obtained from Molar Chemicals (Halasztelek, Hungary), cellulose capsules were obtained from Capsuline (Davie, Fla.).
Volunteers and PXE patients (after overnight fasting) were involved in the studies. The duration of ingestion was less than one minute. Blood samples were collected from the vena cubiti before ingestion (0 min) and after 30, 60, 120 and 240 min into CTAD anticoagulated tubes (BD, Franklin Lakes, N.J.), and filtered through Centrisart I 300,000 MWCO filters (Sartorius, Frankfurt, Germany). […]

For `O=P([O-])([O-])OP(=O)(O)O.[K+].[K+]` [K2H2P2O7, Dipotassium Pyrophosphate], the “calcification of the heart (total Ca2+-content) five days after cryo-injury” value in the series with Abcc6−/− mice is listed as “reduce calcification to the same extent”. Regarding `O=P([O-])([O-])OP(=O)(O)O.[Na+].[Na+]` [Na2H2P2O7, disodium pyrophosphate, reference compound], the “calcification of the heart (total Ca2+-content) five days after cryo-injury” value in the series with Abcc6−/− mice is “reduce calcification to the same extent”. Moreover, the GI discomfort result in series [1] is listed as “reduced to the minimum”.
